Key:
Sprague-Dawley rats [1] = test: Reversal of Phencyclidine (PCP)-Induced Hyperlocomotor Activity in Rats; format: in vivo; settings: Rattus norvegicus, p.o., overnight fasted, 4 hours prior to 5 mg/kg PCP
Description: Administration of NMDA receptor antagonists, such as ketamine or phencyclidine (PCP), produces psychotomimetic-like effects in humans that are similar to those symptoms observed in patients with schizophrenia.
Motor activity is monitored by placing individual male, Sprague-Dawley (Harlan, Indianapolis, Ind.) rats in transparent, plastic shoe-box cages of the dimensions 45×25×20 cm, with 1 cm depth of wood chips as bedding, and a metal grill on top of the cage. Motor monitors (Kinder Scientific) consist of a rectangular rack of 12 photobeams arranged in an 8×4 formation, (or a high density grouping of 22 in a 15×7 pattern) at a height of 5 cm, with a second rack (for measuring rearing behaviors) at a height of 15 cm. The shoe box cage is placed inside of these racks, with the racks on a 3 foot high tabletop in an isolated room. A compound of the present invention is dosed (intraperitoneal route (i.p.), non-prodrug) within a range of 0.3-10 mg/kg, 30 minutes prior to a 5 mg/kg challenge dose of phencyclidine (PCP). A compound of the present invention is dosed (oral route, prodrug) within a range of 0.3-30 mg/kg, in overnight fasted rats, 4 hours prior to a 5 mg/kg challenge dose of PCP. On the test day, rats are placed in the test cage and allowed to acclimate for 30 minutes prior to PCP challenge; rats are monitored for an additional 60 minutes following PCP administration.
Data analysis and ED50 calculations are conducted using GraphPad Prism (San Diego, Calif. USA). Power analyses have determined that 8-10 rats per group are needed to have appropriate statistical power for detecting treatment differences (power=0.8). A one-way analysis of variance (ANOVA) with a post-hoc Dunnett's multiple comparison test is conducted on the total 60 minute locomotor activity. ED50 calculations are performed using non-linear regression curve fitting on percent reversal transformed data for each dose.

hPepT1 = biological target: T1, hPepT1 (Homo sapiens, UniProt P46059); test: In Vitro PepT1 GlySar Inhibition Screen and IC50 Determination; format: cell-based; settings: for inhibition at 5000 µM: 5 mM, pH 6.0, PepT1 transiently transfected HeLa cells, read-out: hPepT1 [3H]Gly-Sar uptake inhibition at 5 mM
T1 construct: expressed in transfected cells; host or cells: HeLa cells (ATCC), transient transfection with FuGene6
T1 sequence (P46059 1-708): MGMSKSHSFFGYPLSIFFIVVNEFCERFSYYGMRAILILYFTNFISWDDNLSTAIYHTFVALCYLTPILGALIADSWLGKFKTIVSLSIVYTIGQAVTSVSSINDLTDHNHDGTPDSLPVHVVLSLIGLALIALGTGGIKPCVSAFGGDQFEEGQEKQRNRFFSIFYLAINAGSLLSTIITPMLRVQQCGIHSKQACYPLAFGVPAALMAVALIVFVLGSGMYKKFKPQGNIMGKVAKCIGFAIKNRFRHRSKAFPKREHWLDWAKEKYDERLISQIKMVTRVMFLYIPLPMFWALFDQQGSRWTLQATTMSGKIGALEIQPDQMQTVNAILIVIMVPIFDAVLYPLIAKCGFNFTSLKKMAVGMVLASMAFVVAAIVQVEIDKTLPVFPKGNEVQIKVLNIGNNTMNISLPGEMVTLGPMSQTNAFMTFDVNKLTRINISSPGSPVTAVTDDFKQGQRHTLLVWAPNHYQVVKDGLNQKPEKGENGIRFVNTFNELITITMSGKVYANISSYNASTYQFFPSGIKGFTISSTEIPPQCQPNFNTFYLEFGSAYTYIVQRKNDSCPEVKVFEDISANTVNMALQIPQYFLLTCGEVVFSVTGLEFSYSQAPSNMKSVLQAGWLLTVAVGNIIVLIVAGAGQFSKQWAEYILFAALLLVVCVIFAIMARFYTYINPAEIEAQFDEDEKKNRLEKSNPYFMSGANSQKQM
Description: PepT1 assays are established to examine the ability of the amino acid prodrug compounds to interact with the intestinal absorption transporter PepT1.
HeLa cells, […], (American Type Culture Collection) are grown in Hyclone Medium (Invitrogen, Cat# SH30243) containing 10% fetal bovine serum (FBS), 0.1 mM non essential amino acids (NEAA), and 100 units/mL penicillin with 100 μg/mL streptomycin at 37° C. in a 5% CO2 humidified atmosphere. The cell line is used for up to 40 passages and then discarded. Frozen cells in 1 ml vials are thawed in water bath for 1-2 minutes and added to 5 mL of cell medium at 37° C. Each of the T-flasks is provided with 8.5 mL of the fresh medium and 1.5 mL of the cell stock. Cells are passaged twice during a week. This is achieved by rinsing the flasks with 10 mL of phosphate buffered saline-ethylene diaminetetra acetic acid (PBS-EDTA), adding 2 mL of trypsin for 2-5 minutes, to detach the cells, and adding 8 mL of fresh medium to inhibit further activity of trypsin. Each new flask receives a combination of 8.5 mL of fresh medium and 1.5 mL of cell stock, in order to obtain 1:6 cell dilution. Cells are incubated at 37° C., until ready for the uptake study.
Cells that are 70-80% confluent in the T-flasks are plated 1 day prior to the transfection procedure. The flask with the cell stock is treated with PBS-EDTA and trypsin to detach the cells, and transfection medium is used from this point. Transfection medium consists of Dulbecco's Modified Eagle Medium (DMEM)+NEAA. To each well, 0.5 mL of the cell mixture is added (1.3×10^5 is the desired cell concentration) and the cells are incubated at 37° C. overnight. Twenty four hours before the assay, cells are transfected with PEPT1. Transfection mixture is prepared by mixing 600 μL of serum free transfection medium, 18 μL of FuGene6 (Roche Diagnostics), and 11 μg of the PepT1 DNA. The transfection reagent-DNA complex is incubated for 20 minutes and 24 μL of the reagent-DNA complex is added to each well.
J. Pharm. Exper Ther. 310:437-445). […] Uptake media consists of 140 mM NaCl, 5.4 mM KCl, 1.8 mM CaCl2, 0.8 mM MgSO4, 5 mM Glucose, 25 mM tris(hydroxymethyl)aminomethane buffer (TRIS). The solution is then brought to pH 6.0 using 2-(N-morpholino)ethanesulfonic acid. The incubation volume is 500 μL and is performed at room temperature for 3 minutes. To stop the uptake at the conclusion of the incubation time, the uptake media is aspirated off of the cell monolayer and 500 μL of ice cold PBS added to the well. The cells are washed 3 times with 500 μL of room temperature PBS without Ca^+2 and Mg^+2. The cells are then lysed with 300 μL of 1% Triton X100 H2O solution. […] A no inhibitor control is established and the percent inhibition of each prodrug is calculated with respect to this control.
The incubation and sampling procedures are exactly the same as the PepT1 screen described above. […]

[2] = 1 h, 10 µM, pH 7.4
Description: Frozen human duodenum intestinal homogenates (1:2 tissue:buffer ratio using 100 mM Tris Phosphate buffer, pH 7.4) are obtained from Celsius In Vitro Technologies (Baltimore, Md.) that were both phenylmethylsulphonylfluoride (PMSF) and EDTA free.
Each lot of human duodenum is obtained from a single donor and the intestine is scraped and the sections are frozen separate. All original tissue collections are performed at 4° C. and immediately frozen at −70° C. Human intestinal homogenates are thawed and diluted to a final protein concentration of 0.5 mg/mL in 100 mM PBS buffer, pH 7.4 immediately prior to the incubations.
Incubations are conducted in 96-well plates and all prodrug compounds are run in duplicate on each day. Stock prodrug compound solutions are prepared in water at a concentration of 1 mM. A 200 μL aliquot of 0.5 mg/mL intestinal homogenate and 196 μL of 100 mM PBS buffer are placed in a 96-well plate in a 37° C. water bath. Using a 96-well pipettor, 4 μL of the 1 mM prodrug compound solution is transferred into the homogenate. Immediately after addition of the prodrug compound (time zero) and after 1 hour incubation, 50 μL samples of the incubation mixture are removed using an automated disposable simultaneous 96 well pipettor and added directly to 200 μL of methanol quench solution containing 100 ng/mL of Internal Standard. The samples are then centrifuged at 3500 rpm for 5 minutes at 10° C. The supernatant (200 μL) is transferred to a final 96 well PCR plate and sealed for analysis by LC/MS/MS.
Concentrations of hydrolyzed compounds of the present invention in the incubation mixtures are determined using LC/MS/MS detection on a Sciex API 4000 quadrapole mass spectrometer with Analyst version 1.4.2, TurboIonSpray, positive ionization, and Selected Reaction Monitoring (SRM). A Waters Atlantis® T3 (20×2.1 mm, 5 μM) HPLC column is used at ambient temperature with a flow rate of 1.0 mL/min and a mobile phase gradient from 0.1% mobile phase A to 99% mobile phase A. Mobile phase A is 1000:5 water:heptafluorobuteric acid and mobile phase B is 1:1 methanol:glacial acetic acid.
Concentrations of hydrolyzed compounds of the present invention in the intestinal incubation mixtures are determined from standard curves prepared by replicate two-fold dilution starting at 10 μM in 100 mM PBS pH 7.4 and subsequently quenched with methanol-internal standard solution identical to the samples. Averages and standard deviations are calculated using Microsoft® Office Excel® 2007. Amount of hydrolysis is determined as a molar percentage of compound formed relative to prodrug compound concentration added. […] Final values are then normalized relative to the formation of Internal Compound Drug A.

NIH-Swiss mice = test: Forced Swim Test in mice; format: in vivo, mouse; settings: positive control over multiple studies
Description: (§1) In this assay, mechanisms with purported antidepressant-like activity decrease immobility in a brief inescapable forced swim episode.
The forced-swim test is conducted with both mice (male, NIH-Swiss mice, 20-25 g, Harlan Sprague-Dawley, Indianapolis, Ind.) and rats (male, Sprague-Dawley rats, 250-350 g, Harlan Sprague-Dawley, Indianapolis, Ind.). Mice are placed in clear plastic cylinders (diameter 10 cm; height: 25 cm) filled to 6 cm with 22-25° C. water for six min. The duration of immobility is recorded during the last 4 min of a six-minute trial. Rats are treated similarly, albeit in clear plastic cylinders of larger dimensions (diameter: 18 cm; height: 40 cm) filled with water (22-25° C.) to a depth of 16 cm for 15 min. Additionally, mice receive a single forced swim exposure; rats receive two, 5-min sessions separated by 24 hours (data is recorded only on Day 2). […] Imipramine is used as a positive control for these studies. […] Compounds are in a clear solution. The amount of time spent immobile (defined as movements only necessary to keep the subject's head above water) is the dependent measure and recorded by an observer blinded to the drug treatment of the subjects. Data are analyzed by post-hoc Dunnett's test with alpha level set at 0.05. The mouse version of the forced swim test is most commonly used.

Sprague-Dawley rats [3] = test: Forced Swim Test in rats; format: in vivo, rat; settings: 30 mg/kg
Description: as §1
The forced-swim test is conducted with both mice (male, NIH-Swiss mice, 20-25 g, Harlan Sprague-Dawley, Indianapolis, Ind.) and rats (male, Sprague-Dawley rats, 250-350 g, Harlan Sprague-Dawley, Indianapolis, Ind.). Mice are placed in clear plastic cylinders (diameter 10 cm; height: 25 cm) filled to 6 cm with 22-25° C. water for six min. The duration of immobility is recorded during the last 4 min of a six-minute trial. Rats are treated similarly, albeit in clear plastic cylinders of larger dimensions (diameter: 18 cm; height: 40 cm) filled with water (22-25° C.) to a depth of 16 cm for 15 min. Additionally, mice receive a single forced swim exposure; rats receive two, 5-min sessions separated by 24 hours (data is recorded only on Day 2). The compound of Example 1 is tested in mice using intraperitoneal dosing (1, 3, or 10 mg/kg), 60 min prior to testing. […] Example 2 is administered 5 min following the first forced swim exposure and 120 min prior to the test session on Day 2. Imipramine is used as a positive control for these studies. Compounds are formulated in a water vehicle, with minimal NaOH being added to Example 1 and Example 2. Compounds are in a clear solution. The amount of time spent immobile (defined as movements only necessary to keep the subject's head above water) is the dependent measure and recorded by an observer blinded to the drug treatment of the subjects. Data are analyzed by post-hoc Dunnett's test with alpha level set at 0.05. The mouse version of the forced swim test is most commonly used. An ED60 value (60% of the amount of immobility relative to vehicle controls) is calculated to estimate potency of the test compounds.

| SMILES | inhibition at 5000 µM (hPepT1) [%] | human intestinal hydrolysis relative to Internal Prodrug Compound A [2] [%] | further results |
| --- | --- | --- | --- |
| CSCC[C@H](N)C(=O)N[C@@]1(C(=O)O)C[C@@H](Sc2nnc[nH]2)[C@H]2[C@H](C(=O)O)[C@H]21.Cl [Example 3, (1R,2S,4R,5R,6R)-2-[[(2S)-2-Amino-4-methylsulfanyl-butanoyl]amino]-4-(4H-1,2,4-triazol-3-ylsulfanyl)bicyclo[3.1.0]hexane-2,6-dicarboxylic acid hydrochloride] | 51 | 53 | ED50 (Sprague-Dawley rats [1]): 5.46 mg/kg; IC50 (hPepT1; 0.0625 to 25 mM, PepT1 transfected HeLa cells, read-out: hPepT1 [3H]Gly-Sar uptake inhibition IC50): 5.36 mM |
| CC(C)C[C@H](N)C(=O)N[C@@]1(C(=O)O)C[C@@H](Sc2nnc[nH]2)[C@H]2[C@H](C(=O)O)[C@H]21.Cl [Example 4, (1R,2S,4R,5R,6R)-2-[[(2S)-2-Amino-4-methyl-pentanoyl]amino]-4-(4H-1,2,4-triazol-3-ylsulfanyl)bicyclo[3.1.0]hexane-2,6-dicarboxylic acid hydrochloride] | 32 | 45 |  |
| Cl.NCC(=O)N[C@@]1(C(=O)O)C[C@@H](Sc2nnc[nH]2)[C@H]2[C@H](C(=O)O)[C@H]21 [Example 5, (1R,2S,4R,5R,6R)-2-[(2-Aminoacetyl)amino]-4-(4H-1,2,4-triazol-3-ylsulfanyl)bicyclo[3.1.0]hexane-2,6-dicarboxylic acid hydrochloride] | 44 | 35 |  |
| N[C@@]1(C(=O)OCc2ccccc2)C[C@@H](Sc2nnc[nH]2)[C@H]2[C@H](C(=O)OCc3ccccc3)[C@H]21 [Example 6, Dibenzyl (1R,2S,4R,5R,6R)-2-amino-4-(4H-1,2,4-triazol-3-ylsulfanyl)bicyclo[3.1.0]hexane-2,6-dicarboxylate] |  | 2 |  |
| CN(C)CCCN1c2ccccc2CCc2ccccc21 [imipramine, reference compound] |  |  | ED60 (NIH-Swiss mice): 8.6 ± 1.2 mg/kg; effect, % of vehicle immobility levels (NIH-Swiss mice): 39±1.2%; immobility as % of vehicle controls (Sprague-Dawley rats [3]): 70% |
